Laboratory results taken from ChEMBL document CHEMBL3822415, “Toward the Validation of Maternal Embryonic Leucine Zipper Kinase: Discovery, Optimization of Highly Potent and Selective Inhibitors, and Preliminary Biology Insight” (J Med Chem, 2016).
≈ marks a conversion by molar mass, not a printed value.

Assays:
[1] = target: T1, Maternal embryonic leucine zipper kinase (Homo sapiens, UniProt Q14680); test: Inhibition of MELK catalytic domain (unknown origin) preincubated for 20 mins followed by addition of KinEASE STK S1 peptide as substrate in presence of 2 mM ATP measured after 20 mins by time-resolved fluorescence assay
T1 sequence (Q14680 whole entry, the tested form may be a part): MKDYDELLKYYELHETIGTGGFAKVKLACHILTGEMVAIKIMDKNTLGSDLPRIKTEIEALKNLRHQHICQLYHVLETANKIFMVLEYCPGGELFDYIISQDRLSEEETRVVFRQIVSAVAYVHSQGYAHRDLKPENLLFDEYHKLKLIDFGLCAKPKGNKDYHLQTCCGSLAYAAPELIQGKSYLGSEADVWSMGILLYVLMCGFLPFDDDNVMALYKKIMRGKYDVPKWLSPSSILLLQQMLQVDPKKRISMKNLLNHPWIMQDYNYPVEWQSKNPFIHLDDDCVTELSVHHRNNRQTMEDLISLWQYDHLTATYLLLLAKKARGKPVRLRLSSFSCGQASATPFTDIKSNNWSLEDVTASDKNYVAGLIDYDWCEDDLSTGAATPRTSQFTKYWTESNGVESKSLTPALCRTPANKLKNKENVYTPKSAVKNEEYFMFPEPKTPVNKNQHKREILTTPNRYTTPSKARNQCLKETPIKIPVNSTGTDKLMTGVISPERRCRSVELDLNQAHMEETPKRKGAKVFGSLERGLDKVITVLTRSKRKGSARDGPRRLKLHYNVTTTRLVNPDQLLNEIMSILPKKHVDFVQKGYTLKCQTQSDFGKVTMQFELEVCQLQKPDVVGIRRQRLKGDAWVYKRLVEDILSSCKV

[2] = target: T1, Maternal embryonic leucine zipper kinase; test: Inhibition of MELK catalytic domain (unknown origin) preincubated for 20 mins followed by addition of KinEASE STK S1 peptide as substrate in presence of 20 uM ATP measured after 20 mins by time-resolved fluorescence assay
[3] = target: Mitogen-activated protein kinase kinase kinase kinase 4 (Homo sapiens, UniProt O95819); test: Inhibition of MAP4K4 (unknown origin)
Chain of Mitogen-activated protein kinase kinase kinase kinase 4 (O95819 whole entry): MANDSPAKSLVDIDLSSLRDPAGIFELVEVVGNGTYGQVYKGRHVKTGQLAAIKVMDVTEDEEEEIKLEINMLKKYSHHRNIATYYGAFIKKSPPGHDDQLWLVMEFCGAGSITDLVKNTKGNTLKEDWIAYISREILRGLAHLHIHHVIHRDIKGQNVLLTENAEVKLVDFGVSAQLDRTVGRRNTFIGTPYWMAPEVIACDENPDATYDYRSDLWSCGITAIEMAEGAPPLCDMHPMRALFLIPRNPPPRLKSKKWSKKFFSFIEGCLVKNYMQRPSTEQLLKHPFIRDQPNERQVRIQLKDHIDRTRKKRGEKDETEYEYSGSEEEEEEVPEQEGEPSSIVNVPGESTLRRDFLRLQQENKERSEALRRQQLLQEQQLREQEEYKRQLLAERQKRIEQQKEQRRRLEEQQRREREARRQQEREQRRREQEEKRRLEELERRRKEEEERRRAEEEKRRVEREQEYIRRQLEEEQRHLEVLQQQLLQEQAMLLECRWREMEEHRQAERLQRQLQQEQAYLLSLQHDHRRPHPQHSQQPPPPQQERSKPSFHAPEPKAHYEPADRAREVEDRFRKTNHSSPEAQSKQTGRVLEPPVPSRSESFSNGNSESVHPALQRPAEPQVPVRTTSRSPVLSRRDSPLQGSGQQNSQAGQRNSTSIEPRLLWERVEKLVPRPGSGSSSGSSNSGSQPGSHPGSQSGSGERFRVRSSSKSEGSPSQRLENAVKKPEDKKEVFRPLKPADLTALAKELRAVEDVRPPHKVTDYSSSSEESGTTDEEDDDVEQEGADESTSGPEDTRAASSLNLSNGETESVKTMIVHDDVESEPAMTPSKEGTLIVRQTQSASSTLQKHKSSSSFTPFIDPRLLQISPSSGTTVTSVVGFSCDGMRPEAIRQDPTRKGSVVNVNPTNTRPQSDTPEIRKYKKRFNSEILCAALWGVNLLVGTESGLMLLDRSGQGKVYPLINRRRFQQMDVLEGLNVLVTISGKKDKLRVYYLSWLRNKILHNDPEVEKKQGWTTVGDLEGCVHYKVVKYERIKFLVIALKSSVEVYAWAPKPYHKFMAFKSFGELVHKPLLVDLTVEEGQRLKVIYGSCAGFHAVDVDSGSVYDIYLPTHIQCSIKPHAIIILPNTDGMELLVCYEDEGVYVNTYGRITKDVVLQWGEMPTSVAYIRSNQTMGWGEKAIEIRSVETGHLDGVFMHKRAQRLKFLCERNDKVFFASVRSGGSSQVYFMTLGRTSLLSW

[4] = target: T2, Platelet-derived growth factor receptor alpha (Homo sapiens, UniProt P16234); test: Inhibition of PDGFR-alpha (unknown origin)
T2 sequence (P16234 whole entry): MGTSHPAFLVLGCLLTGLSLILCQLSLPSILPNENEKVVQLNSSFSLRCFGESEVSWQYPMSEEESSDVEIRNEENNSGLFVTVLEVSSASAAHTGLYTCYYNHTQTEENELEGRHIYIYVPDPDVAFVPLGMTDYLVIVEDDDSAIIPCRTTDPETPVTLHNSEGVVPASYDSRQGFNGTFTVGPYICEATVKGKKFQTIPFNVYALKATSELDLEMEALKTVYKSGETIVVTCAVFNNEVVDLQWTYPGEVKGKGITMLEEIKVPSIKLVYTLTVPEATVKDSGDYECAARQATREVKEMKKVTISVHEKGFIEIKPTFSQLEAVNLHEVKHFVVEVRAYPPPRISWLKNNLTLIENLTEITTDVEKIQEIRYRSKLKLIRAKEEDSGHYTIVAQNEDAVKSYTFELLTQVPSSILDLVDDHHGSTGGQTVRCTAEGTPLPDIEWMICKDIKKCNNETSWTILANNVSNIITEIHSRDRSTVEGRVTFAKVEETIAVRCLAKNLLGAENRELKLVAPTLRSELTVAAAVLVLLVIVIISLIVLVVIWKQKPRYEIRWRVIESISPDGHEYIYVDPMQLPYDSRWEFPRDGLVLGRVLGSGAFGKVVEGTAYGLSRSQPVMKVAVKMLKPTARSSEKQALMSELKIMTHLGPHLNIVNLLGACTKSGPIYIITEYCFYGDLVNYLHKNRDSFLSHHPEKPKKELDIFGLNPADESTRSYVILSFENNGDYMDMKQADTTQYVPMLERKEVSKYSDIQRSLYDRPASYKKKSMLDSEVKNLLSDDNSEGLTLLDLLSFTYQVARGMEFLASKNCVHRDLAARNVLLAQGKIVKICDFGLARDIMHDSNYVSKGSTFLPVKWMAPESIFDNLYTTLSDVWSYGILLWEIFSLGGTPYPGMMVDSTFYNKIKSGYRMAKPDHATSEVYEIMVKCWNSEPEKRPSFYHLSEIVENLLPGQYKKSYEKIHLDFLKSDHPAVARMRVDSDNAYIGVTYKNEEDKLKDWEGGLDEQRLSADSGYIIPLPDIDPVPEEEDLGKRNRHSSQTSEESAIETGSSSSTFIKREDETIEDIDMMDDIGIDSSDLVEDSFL

[5] = target: T3, Receptor-type tyrosine-protein kinase FLT3 (Homo sapiens, UniProt P36888); test: Inhibition of FLT3 (unknown origin)
T3 sequence (P36888 whole entry): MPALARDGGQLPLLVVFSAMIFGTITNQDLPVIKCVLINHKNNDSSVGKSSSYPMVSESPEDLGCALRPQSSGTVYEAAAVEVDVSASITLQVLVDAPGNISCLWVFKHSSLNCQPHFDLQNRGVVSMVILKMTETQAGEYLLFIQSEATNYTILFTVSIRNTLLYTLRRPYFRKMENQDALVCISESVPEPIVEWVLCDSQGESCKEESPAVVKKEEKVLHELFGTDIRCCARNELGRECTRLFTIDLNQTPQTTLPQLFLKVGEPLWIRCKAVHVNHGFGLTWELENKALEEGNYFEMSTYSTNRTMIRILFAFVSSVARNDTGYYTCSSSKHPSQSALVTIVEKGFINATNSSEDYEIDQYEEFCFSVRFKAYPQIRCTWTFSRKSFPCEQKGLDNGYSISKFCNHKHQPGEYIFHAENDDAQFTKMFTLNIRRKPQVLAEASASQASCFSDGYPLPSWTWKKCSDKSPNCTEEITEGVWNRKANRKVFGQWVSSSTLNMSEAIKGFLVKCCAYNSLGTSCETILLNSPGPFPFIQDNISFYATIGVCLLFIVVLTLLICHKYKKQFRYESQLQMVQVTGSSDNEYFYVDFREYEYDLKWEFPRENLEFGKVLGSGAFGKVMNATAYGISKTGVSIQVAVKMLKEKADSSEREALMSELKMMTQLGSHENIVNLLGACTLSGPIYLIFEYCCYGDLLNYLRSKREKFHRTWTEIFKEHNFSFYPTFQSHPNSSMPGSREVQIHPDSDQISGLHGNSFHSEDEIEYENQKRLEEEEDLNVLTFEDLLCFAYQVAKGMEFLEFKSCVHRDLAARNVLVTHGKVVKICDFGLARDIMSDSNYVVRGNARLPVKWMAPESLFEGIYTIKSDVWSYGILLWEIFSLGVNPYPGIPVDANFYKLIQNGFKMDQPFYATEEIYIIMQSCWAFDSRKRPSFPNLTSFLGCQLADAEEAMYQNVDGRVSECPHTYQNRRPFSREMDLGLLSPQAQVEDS

MDA-MB-468 = test: Antiproliferative activity against MELK-dependent human MDA-MB-468 cells assessed as reduction in cell viability after 7 days by CellTiter-Glo assay; details: MDA-MB-468, 168 h
MCF7 = test: Antiproliferative activity against MELK-independent ER-positive human MCF7 cells assessed as reduction in cell viability after 7 days by CellTiter-Glo assay; details: MCF7, 168 h
[6] = target: Receptor-type tyrosine-protein kinase FLT3 (Homo sapiens, UniProt P36888, ITD); test: Inhibition of partial-length human FLT3 ITD mutant expressed in bacterial expression system by KINOMEscan assay
[7] = target: T4, Serine/threonine-protein kinase haspin (Homo sapiens, UniProt Q8TF76); test: Inhibition of partial-length human wild type HASPIN expressed in mammalian expression system by KINOMEscan assay
T4 sequence (Q8TF76 whole entry): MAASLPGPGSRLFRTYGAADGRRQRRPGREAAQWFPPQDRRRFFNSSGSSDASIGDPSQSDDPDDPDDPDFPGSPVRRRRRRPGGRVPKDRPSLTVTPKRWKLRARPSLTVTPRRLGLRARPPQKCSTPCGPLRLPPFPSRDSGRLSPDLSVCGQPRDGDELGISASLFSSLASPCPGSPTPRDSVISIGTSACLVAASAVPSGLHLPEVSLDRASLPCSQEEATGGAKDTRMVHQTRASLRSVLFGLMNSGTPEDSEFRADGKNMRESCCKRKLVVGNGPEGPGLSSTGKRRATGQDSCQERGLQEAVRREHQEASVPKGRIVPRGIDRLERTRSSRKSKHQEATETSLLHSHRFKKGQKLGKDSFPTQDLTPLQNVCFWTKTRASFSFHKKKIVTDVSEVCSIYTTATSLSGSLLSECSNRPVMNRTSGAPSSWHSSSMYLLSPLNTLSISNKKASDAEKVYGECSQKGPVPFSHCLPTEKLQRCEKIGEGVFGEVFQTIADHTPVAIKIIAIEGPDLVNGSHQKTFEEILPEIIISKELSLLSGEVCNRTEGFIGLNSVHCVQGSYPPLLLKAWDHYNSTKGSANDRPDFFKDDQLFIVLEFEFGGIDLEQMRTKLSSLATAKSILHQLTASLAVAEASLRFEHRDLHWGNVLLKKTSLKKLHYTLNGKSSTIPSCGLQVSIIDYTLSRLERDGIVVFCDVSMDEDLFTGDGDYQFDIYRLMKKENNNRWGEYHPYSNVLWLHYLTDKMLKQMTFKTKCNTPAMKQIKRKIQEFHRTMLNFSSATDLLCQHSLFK

[8] = Cmax in C57BL/6 mouse at 30 mg/kg, sc by LC-MS/MS analysis; format: ADME, organism-based; parameters: dose 30 mg/kg, route subcutaneous; details: in vivo
Plasma [9] = test: Drug uptake in plasma of athymic nude mouse at 120 to 240 mg/kg, sc qd; format: ADME, organism-based; details: in vivo
[10] = target: T1, Maternal embryonic leucine zipper kinase; test: Binding affinity to MELK (unknown origin) expressed in Escherichia coli by SPR analysis
[11] = Solubility of the compound at pH 6.8; format: physicochemical; details: buffer
[12] = AUC (0 to 7 hrs) in C57BL/6 mouse at 1 mg/kg, iv by LC-MS/MS analysis; format: ADME, organism-based; parameters: time < 7 hr, dose 1 mg/kg, route intravenous; details: in vivo
[13] = target: Mast/stem cell growth factor receptor Kit (Homo sapiens, UniProt P10721, A829P); test: Inhibition of partial-length human KIT A829P mutant expressed in mammalian expression system by KINOMEscan assay
Chain of Mast/stem cell growth factor receptor Kit (P10721 26-976 A829P limits assumed): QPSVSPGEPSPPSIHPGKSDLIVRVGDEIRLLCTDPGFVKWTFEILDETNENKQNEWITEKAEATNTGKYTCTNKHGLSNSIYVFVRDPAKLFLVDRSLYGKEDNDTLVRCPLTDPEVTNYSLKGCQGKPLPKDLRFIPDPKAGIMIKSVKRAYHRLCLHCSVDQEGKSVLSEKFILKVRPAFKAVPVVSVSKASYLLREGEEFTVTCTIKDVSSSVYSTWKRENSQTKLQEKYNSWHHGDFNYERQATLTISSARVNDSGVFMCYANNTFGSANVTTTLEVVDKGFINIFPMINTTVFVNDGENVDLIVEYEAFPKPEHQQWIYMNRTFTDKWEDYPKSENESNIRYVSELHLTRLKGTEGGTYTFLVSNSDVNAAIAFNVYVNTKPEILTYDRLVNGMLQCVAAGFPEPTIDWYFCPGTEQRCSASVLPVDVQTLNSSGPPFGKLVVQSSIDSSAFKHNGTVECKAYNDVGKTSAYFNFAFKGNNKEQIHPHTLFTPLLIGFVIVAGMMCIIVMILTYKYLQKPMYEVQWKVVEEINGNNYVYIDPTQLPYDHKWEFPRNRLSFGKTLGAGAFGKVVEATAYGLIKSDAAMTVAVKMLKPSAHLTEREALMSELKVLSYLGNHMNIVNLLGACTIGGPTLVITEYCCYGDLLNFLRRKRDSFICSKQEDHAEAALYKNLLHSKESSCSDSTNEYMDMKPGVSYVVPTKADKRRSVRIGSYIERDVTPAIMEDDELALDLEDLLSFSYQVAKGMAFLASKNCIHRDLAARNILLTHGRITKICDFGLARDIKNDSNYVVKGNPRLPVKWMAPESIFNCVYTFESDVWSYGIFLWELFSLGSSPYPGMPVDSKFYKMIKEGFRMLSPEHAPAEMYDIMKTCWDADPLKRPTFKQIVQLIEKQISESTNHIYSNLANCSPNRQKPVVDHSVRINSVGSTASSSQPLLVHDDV

[14] = AUC (0 to 7 hrs) in C57BL/6 mouse at 10 mg/kg, po by LC-MS/MS analysis; format: ADME, organism-based; parameters: time < 7 hr, dose 10 mg/kg, route oral; details: in vivo
[15] = Clearance in C57BL/6 mouse at 1 mg/kg, iv by LC-MS/MS analysis; format: ADME, organism-based; details: in vivo
[16] = Tmax in C57BL/6 mouse at 30 mg/kg, sc by LC-MS/MS analysis; format: ADME, organism-based; details: in vivo
Plasma [17] = test: Drug uptake in plasma of athymic nude mouse at 120 mg/kg, sc bid; format: ADME, organism-based; details: in vivo
[18] = Cmax in C57BL/6 mouse at 10 mg/kg, po by LC-MS/MS analysis; format: ADME, organism-based; parameters: dose 10 mg/kg, route oral; details: in vivo
[19] = Extraction ratio in mouse microsomes; format: ADME, Microsome
[20] = target: T2, Platelet-derived growth factor receptor alpha; test: Inhibition of partial-length human wild type PDGFR-alpha expressed in mammalian expression system by KINOMEscan assay
[21] = Tmax in C57BL/6 mouse at 10 mg/kg, po by LC-MS/MS analysis; format: ADME, organism-based; details: in vivo
[22] = Oral bioavailability in C57BL/6 mouse at 10 mg/kg by LC-MS/MS analysis; format: ADME, organism-based; details: in vivo
[23] = Half life of the compound; format: physicochemical
[24] = AUC (0 to 7 hrs) in C57BL/6 mouse at 30 mg/kg, sc by LC-MS/MS analysis; format: ADME, organism-based; parameters: dose 30 mg/kg, time < 7 hr, route subcutaneous; details: in vivo
[25] = Apparent permeability across apical to basolateral side in human Caco2 cells; format: ADME, cell-based; details: Caco-2
[26] = target: T1, Maternal embryonic leucine zipper kinase; test: Inhibition of full-length MELK (unknown origin) preincubated for 20 mins followed by addition of KinEASE STK S1 peptide as substrate in presence of 20 uM ATP measured after 20 mins by time-resolved fluorescence assay
[27] = Volume of distribution at steady state in C57BL/6 mouse at 1 mg/kg, iv by LC-MS/MS analysis; format: ADME, organism-based; details: in vivo, read-out: Vdss
Plasma [28] = test: Metabolic stability in mouse plasma measured after 4 hrs; format: ADME, cell-free
[29] = Oral bioavailability in C57BL/6 mouse at 5 mg/kg by LC-MS/MS analysis; format: ADME, organism-based; details: in vivo
[30] = AUC (0 to 7 hrs) in C57BL/6 mouse at 5 mg/kg, po by LC-MS/MS analysis; format: ADME, organism-based; parameters: dose 5 mg/kg, time < 7 hr, route oral; details: in vivo
[31] = Tmax in C57BL/6 mouse at 5 mg/kg, po by LC-MS/MS analysis; format: ADME, organism-based; details: in vivo
[32] = Cmax in C57BL/6 mouse at 5 mg/kg, po by LC-MS/MS analysis; format: ADME, organism-based; parameters: dose 5 mg/kg, route oral; details: in vivo

For `CN1CCN(c2ccc(-n3cc(-c4ccncc4OC4CCNCC4)cn3)cc2)CC1`, the IC50 [1] was 260 nM and the IC50 [2] was 6 nM.
In the case of `CS(=O)(=O)c1ccc(-n2cc(-c3ccccc3)cn2)cc1`, the IC50 [2] is reported as > 20000 nM.
In the case of `Fc1ccccc1-n1cc(-c2ccncc2OCC2CCNCC2)cn1`, the IC50 [2] is reported as 13 nM.
In the case of `c1cc(-c2cnn(-c3ccc(N4CCOCC4)cc3)c2)c(OCC2CCNCC2)cn1`, the IC50 [1] is reported as 210 nM and the IC50 [2] is reported as 6 nM.
In the case of `O=C(NCc1ccccn1)c1ccc(-n2cc(-c3ccncc3)cn2)cc1`, the IC50 [3] is reported as < 5000 nM, the IC50 [1] is reported as 18800 nM and the IC50 [4] is reported as < 5000 nM. The IC50 [2] was 180 nM and the IC50 [5] was < 5000 nM.
`CN1CCN(c2ccc(-n3cc(-c4ccncc4)cn3)cc2)CC1` showed an IC50 [1] of 5000 nM and an IC50 [2] of 80 nM.
With `COc1cnccc1-c1cnn(-c2ccc(N3CCN(C)CC3)cc2)c1` the IC50 [2] was 64 nM.
With `CN1CCN(c2ccc(-n3cc(-c4ccncc4OC4CCCCC4)cn3)cc2)CC1` the IC50 [1] was 150 nM and the IC50 [2] was 4 nM.
In the case of `CC(C)COc1cnccc1-c1cnn(-c2ccc(N3CCN(C)CC3)cc2)c1`, the IC50 [1] is reported as 410 nM and the IC50 [2] is reported as 9 nM.
Compound `CS(=O)(=O)c1ccc(-n2cc(-c3ccncc3)cn2)cc1` has an IC50 [2] of 400 nM.
Compound `CN1CCN(c2ccc(-n3cc(-c4ccncc4OC[C@H]4CC[C@H](N)CC4)cn3)cc2)CC1` has an IC50 (MDA-MB-468) of 60 nM, an IC50 [1] of 57 nM and an IC50 [2] of 1 nM. It also gave an IC50 (MCF7) of 1200 nM.
`CN1CCN(c2ccc(-n3cc(-c4ccncc4OCC4CCNCC4)cn3)cc2)CC1` gave an IC50 [6] of 180 nM, an IC50 [7] of 190 nM and a Cmax [8] of 6560 nM. The Drug uptake (Plasma [9]) was “Active”, the IC50 [10] was 2 nM and the solubility [11] was 220 µg/mL (≈ 509 µM). For the same compound, the AUC(0-t) at 7 h [12] was 0.23 µM·h, the IC50 [13] was > 10000 nM and the AUC(0-t) at 7 h [14] was 0.0832 µM·h. The clearance [15] was 114 mL/min/kg, the IC50 (MDA-MB-468) was 110 nM and the IC50 [1] was 140 nM. For the same compound, the Tmax [16] was 24 min, the Drug uptake (Plasma [17]) was “Active” and the Cmax [18] was 34 nM. For the same compound, the IC50 [2] was 2 nM, the hepatic extraction ratio [19] was 0.75 and the IC50 [20] was 420 nM. For the same compound, the IC50 (MCF7) was 3680 nM, the Tmax [21] was 30 min and the bioavailability [22] was 3.6%. It also gave a half-life [23] of 1 min, an AUC(0-t) at 7 h [24] of 18.9 µM·h and a Papp A→B [25] of 14 ×10⁻⁶ cm/s. The IC50 [26] was 5 nM, the Vd [27] was 40.8 L/kg and the Stability (Plasma [28]) was “Stable”.
For `c1ccc(-n2cc(-c3ccncc3OCC3CCNCC3)cn2)cc1`, the IC50 [2] was 36 nM, the bioavailability [29] was 43% and the AUC(0-t) at 7 h [30] was 3.44 µM·h. It also gave a Tmax [31] of 102 min and a Cmax [32] of 1030 nM.
Work on `CN1CCN(c2ccc(-n3cc(-c4ccncc4OCc4ccncc4)cn3)cc2)CC1` yielded an IC50 [1] of 1440 nM and an IC50 [2] of 25 nM.
With `CN1CCN(c2ccc(-n3cc(-c4ccncc4F)cn3)cc2)CC1` the IC50 [1] was 5000 nM and the IC50 [2] was 70 nM.
`CS(=O)(=O)c1ccc(-n2cc(-c3ccc(O)cc3)cn2)cc1` gave an IC50 [2] of 520 nM.
`CN1CCN(c2ccc(-c3cc(-c4ccccc4)n[nH]3)cc2)CC1` showed an IC50 [2] of 670 nM.
`Fc1cc(N2CCOCC2)ccc1-n1cc(-c2ccncc2OCC2CCNCC2)cn1` gave an IC50 [2] of 0.3 nM.
